Like-named read-outs stand apart in the source and are kept apart here.
How the values were obtained:
[1] = tested on: bladder cancer cell lines; assay: Cell based assay, cell viability (CellTiter-Glo), bladder cancer cell lines; conditions: 72 hours treatment, 0 to 2 μM, CellTiter-Glo
Protocol: (§1) Commercially available bladder cancer, prostate cancer, lung cancer, breast cancer, blood cancer, pancreatic cancer, colorectal cancer, brain cancer, neuroblastoma, melanoma, liver cancer, cervical carcinoma, ovarian cancer, renal cancer, and papilloma cell lines were each treated with trypsin-EDTA and cultured, followed by being seeded in each well of a 96 well plate. After 24 hours of treatment at constant temperature, the respective cells were treated with the candidate compound so that a final concentration became 0 to 2 μM. The treated cells were additionally cultured for 72 hours, and cell viability was measured by using an ATP detection method (CellTiter-Glo® Luminescent Cell Viability Assay, Promega).

[2] = tested on: prostate cancer cell lines (e.g. DU145/TXR); assay: Cell based assay, cell viability (CellTiter-Glo), prostate cancer cell lines; conditions: Homo sapiens, 72 hours treatment, final concentration 0 to 2 μM
Protocol: as §1

melanoma cell lines = assay: Cell based assay, cell viability (CellTiter-Glo), melanoma cell lines; conditions: Homo sapiens; LOX-IMVI cell line
Protocol: as §1

liver cancer cell lines = assay: Cell based assay, cell viability (CellTiter-Glo), liver cancer cell lines; conditions: Homo sapiens, SK-HEP1; SK-HEP-1 cell line
Protocol: as §1

[3] = 253J cells, read-out: IC50, bladder cancer cell line 253J
[4] = 5637 cells, read-out: IC50, bladder cancer cell line 5637
[5] = Homo sapiens, T-24, T24 cells, read-out: IC50, bladder cancer cell line T24
[6] = Homo sapiens, J82 cells, read-out: IC50, bladder cancer cell line J82
[7] = CWR22 cells, read-out: IC50, prostate cancer cell line CWR22
[8] = DU-145, DU145/TXR cells, read-out: IC50, prostate cancer cell line DU145/TXR
[9] = DU-145, DU145 cells, read-out: IC50, prostate cancer cell line DU145
[10] = LNcap cells, read-out: IC50, prostate cancer cell line LNcap
[11] = PC-3 cells, read-out: IC50, prostate cancer cell line PC-3
[12] = Homo sapiens, UMUC3, UM-UC-3 cells, read-out: IC50, bladder cancer cell line UM-UC-3
[13] = Homo sapiens, KU-19-19 cells, read-out: IC50, bladder cancer cell line KU-19-19
[14] = MBT-2 cells, read-out: IC50, bladder cancer cell line MBT-2

Compound | IC50 [1, 3] [nM] | IC50 [1, 4] [nM] | IC50 [1, 5] [nM] | IC50 [1, 6] [nM] | IC50 [2, 7] [nM] | IC50 [2, 8] [nM] | IC50 [2, 9] [nM] | IC50 [2, 10] [nM] | IC50 [2, 11] [nM] | IC50 (melanoma cell lines) [nM] | IC50 (liver cancer cell lines) [nM] | IC50 [1, 12] [nM] | IC50 [1, 13] [nM] | IC50 [1, 14] [nM]
CC(=O)c1c([S+]([O-])Cc2ccccc2C#N)[nH]c2c(Br)ccc(Cl)c2c1=O (stereo not shown) [Compound 58, 2-(((3-acetyl-8-bromo-5-chloro-4-oxo-1,4-dihydroquinolin-2-yl)sulfinyl)methyl)benzonitrile] | 920 | > 2000 | 820 | > 2000 | 1200 | 1210 | 1230 | 1440 | 1300 | 880 | 780 |  |  | 
CC(=O)c1c(S(C)(=O)=O)n(C(=O)c2ccc(Br)cc2)c2c(Br)ccc(Cl)c2c1=O [Compound 21, 3-acetyl-8-bromo-1-(4-bromobenzoyl)-5-chloro-2-(methylsulfonyl)quinolin-4(1H)-one] | > 2000 | > 2000 | > 2000 | > 2000 | > 2000 | > 2000 | > 2000 | > 2000 | > 2000 | > 2000 | > 2000 | > 2000 | > 2000 | > 2000
CC(=O)c1c(SCc2ccccc2)[nH]c2c(Br)ccc(Cl)c2c1=O [Compound 3, 3-acetyl-2-(benzylthio)-8-bromo-5-chloroquinolin-4(1H)-one] | > 2000 | > 2000 | > 2000 | > 2000 | > 2000 | > 2000 | > 2000 | > 2000 | > 2000 | > 2000 | > 2000 | > 2000 | > 2000 | > 2000
CC(=O)c1c([S+]([O-])Cc2ccc(S(F)(F)(F)(F)F)cc2)[nH]c2c(Br)ccc(Cl)c2c1=O (stereo not shown) [Compound 68, 3-acetyl-8-bromo-5-chloro-2-((4-(pentafluoro-16-sulfanyl)benzyl)sulfinyl)quinolin-4(1H)-one] | 970 | 1460 | 1470 | 1490 | 1620 | 940 | 830 | > 2000 | 1240 | 960 | 860 | 1110 | 1250 | 1070
CC(=O)c1c([S+]([O-])Cc2ccc(Cl)nc2)[nH]c2c(Br)ccc(Cl)c2c1=O (stereo not shown) [Compound 104, 3-acetyl-8-bromo-5-chloro-2-(((6-chloropyridin-3-yl)methyl)sulfinyl)quinolin-4(1H)-one] |  | > 2000 | 1030 | > 2000 | 1550 | 1230 | 1640 | > 2000 | > 2000 | 880 | 1500 |  |  | 
CSc1c(C(C)=O)c(=O)c2c(Cl)ccc(Br)c2n1S(=O)(=O)c1ccc(C(C)(C)C)cc1 [Compound 40, 3-acetyl-8-bromo-1-((4-(tert-butyl)phenyl)sulfonyl)-5-chloro-2-(methylthio)quinolin-4(1H)-one] | > 2000 | > 2000 | > 2000 | > 2000 | > 2000 | > 2000 | > 2000 | > 2000 | > 2000 | > 2000 | > 2000 | > 2000 | > 2000 | > 2000
COCSc1[nH]c2c(Br)ccc(Cl)c2c(=O)c1C(C)=O [Compound 61, 3-acetyl-8-bromo-5-chloro-2-((methoxymethyl)thio)quinolin-4(1H)-one] | > 2000 | > 2000 | > 2000 | > 2000 | > 2000 | > 2000 | > 2000 | > 2000 | > 2000 | > 2000 | > 2000 | > 2000 | > 2000 | > 2000
CC(=O)c1c([S+](C)[O-])[nH]c2c(Cl)ccc(Cl)c2c1=O (stereo not shown) [Compound 6, 3-acetyl-5,8-dichloro-2-(methylsulfinyl)quinolin-4(1H)-one] | 1220 | 1690 | 1420 | > 2000 | 1990 | 1540 | 1800 | > 2000 | 1680 | 1350 | 1380 | 1460 | > 2000 | 1440
CC(=O)c1c(Sc2ccc(Br)cc2)[nH]c2c(Br)ccc(Cl)c2c1=O [Compound 16, 3-acetyl-8-bromo-2-((4-bromophenyl)thio)-5-chloroquinolin-4(1H)-one] | > 2000 | > 2000 | > 2000 | > 2000 | > 2000 | > 2000 | > 2000 | > 2000 | > 2000 | > 2000 | > 2000 | > 2000 | > 2000 | > 2000
CSc1[nH]c2ccc(F)cc2c(=O)c1C(C)=O [Compound 8, 1-(6-fluoro-4-hydroxy-2-(methylthio)quinolin-3-yl)ethan-1-one] | > 2000 | > 2000 | > 2000 | > 2000 | > 2000 | > 2000 | > 2000 | > 2000 | > 2000 | > 2000 | > 2000 | > 2000 | > 2000 | > 2000
CC(=O)c1c(SCc2ccc(Cl)cc2)[nH]c2c(Br)ccc(Cl)c2c1=O [Compound 10, 3-acetyl-8-bromo-5-chloro-2-((4-chlorobenzyl)thio)quinolin-4(1H)-one] | > 2000 | > 2000 | > 2000 | > 2000 | > 2000 | > 2000 | > 2000 | > 2000 | > 2000 | > 2000 | > 2000 | > 2000 | > 2000 | > 2000
Cc1cc(C[S+]([O-])c2[nH]c3c(Cl)ccc(Cl)c3c(=O)c2C(=O)c2ccccc2)no1 (stereo not shown) [Compound 88, 3-benzoyl-5,8-dichloro-2-(((5-methylisoxazol-3-yl)methyl)sulfinyl)quinolin-4(1H)-one] | > 2000 | > 2000 | > 2000 | > 2000 | > 2000 | > 2000 | > 2000 | > 2000 |  | > 2000 | > 2000 |  |  | 
CC(=O)c1c([S+]([O-])Cc2ccc(C(=O)c3ccccc3)cc2)[nH]c2c(Br)ccc(Cl)c2c1=O (stereo not shown) [Compound 63, 3-acetyl-2-((4-benzoylbenzyl)sulfinyl)-8-bromo-5-chloroquinolin-4(1H)-one] | > 2000 | > 2000 | > 2000 | > 2000 | > 2000 | > 2000 | > 2000 | > 2000 |  | > 2000 | > 2000 |  |  | 
CC(=O)c1c([S+]([O-])Cc2ccc(N)nc2)[nH]c2c(Br)ccc(Cl)c2c1=O (stereo not shown) [Compound 100, 3-acetyl-2-(((6-aminopyridin-3-yl)methyl)sulfinyl)-8-bromo-5-chloroquinolin-4(1H)-one] | > 2000 | > 2000 | > 2000 | > 2000 | > 2000 | > 2000 | > 2000 | > 2000 |  | > 2000 | > 2000 |  |  | 
CC(=O)c1c([S+]([O-])Cc2ccc(NS(C)(=O)=O)cc2)[nH]c2c(Br)ccc(Cl)c2c1=O (stereo not shown) [Compound 103, N-(4-(((3-acetyl-8-bromo-5-chloro-4-oxo-1,4-dihydroquinolin-2-yl)sulfinyl)methyl)phenyl)methane-sulfonamide] | > 2000 | > 2000 | > 2000 | > 2000 | > 2000 | > 2000 | > 2000 | > 2000 |  | > 2000 | > 2000 |  |  | 
COCCNc1ccc(C[S+]([O-])c2[nH]c3c(Br)ccc(Cl)c3c(=O)c2C(C)=O)cn1 (stereo not shown) [Compound 105, 3-acetyl-8-bromo-5-chloro-2-(((6-((2-methoxyethyl)amino)pyridin-3-yl)methyl)sulfinyl)quinolin-4(1H)-one] | > 2000 | > 2000 | > 2000 | > 2000 | > 2000 | > 2000 | > 2000 | > 2000 |  | > 2000 | > 2000 |  |  | 
COc1cccc2[nH]c([S+]([O-])Cc3cc(C)on3)c(C(C)=O)c(=O)c12 (stereo not shown) [Compound 94, 3-acetyl-5-methoxy-2-(((5-methylisoxazol-3-yl)methyl)sulfinyl)quinolin-4(1H)-one] | > 2000 | > 2000 | > 2000 | > 2000 | > 2000 | > 2000 | > 2000 | > 2000 |  | > 2000 | > 2000 |  |  | 
CC(=O)c1c(S)[nH]c2c(Br)ccc(Cl)c2c1=O [Compound 62, 3-acetyl-8-bromo-5-chloro-2-mercaptoquinolin-4(1H)-one] | > 2000 | > 2000 | > 2000 | > 2000 | > 2000 | > 2000 | > 2000 | > 2000 | > 2000 | > 2000 | > 2000 | > 2000 | > 2000 | > 2000
CC(=O)c1c([S+]([O-])CN2C(=O)c3ccccc3C2=O)[nH]c2c(Cl)ccc(Cl)c2c1=O (stereo not shown) [Compound 90, 2-(((3-acetyl-5,8-dichloro-4-oxo-1,4-dihydroquinolin-2-yl)sulfinyl)methyl)isoindoline-1,3-dione] | > 2000 | > 2000 | > 2000 | > 2000 | > 2000 | > 2000 | > 2000 | > 2000 | > 2000 | > 2000 | > 2000 | > 2000 | > 2000 | > 2000
